Holding throughout (type): in vivo
The subject of one data set is Cyperus difformis. Description: Test Example 3: herbicidal effect by foliage application, Wagner pot (symbol E). Particulars: application herbicide amount 320 g/ha. The gist of the method:
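Steps: fill pot with alluvial soil; add water to 0.1–0.5 cm depth; sow weed and rice seed; grow 14 days at 25–30 °C; spray diluted emulsion over the leaves; rate effect after 3 weeks.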

Data set [1] has as its system Amaranthus retroflexus. The experiment in a line: Test Example 4: herbicidal effect by soil treatment (symbol N). To be noted: application herbicide amount 320 g/ha. The gist of the method:
(§1)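 Seeds were sown in sterilized diluvial soil, covered with about 1.5 cm of soil, and the soil surface was sprayed with a water-diluted emulsion of the compound at a predetermined rate. Plants grew in a greenhouse at 25° C. to 30° C.; effects were scored visually 3 weeks after application.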

The test system of a further data set is Apera spica-venti. The experiment in a line: Test Example 4: herbicidal effect by soil treatment (symbol L). Particulars: application herbicide amount 320 g/ha. The procedure, abridged:
as §1

Another data set relates to Digitaria ciliaris. The experiment in a line: Test Example 4: herbicidal effect by soil treatment (symbol F). To be noted: application herbicide amount 320 g/ha. The gist of the method:
as §1

In data set [2] the test system is Monochoria vaginalis. Description: Test Example 1: herbicidal activity, application before weed generation in submerged conditions (symbol C). To be noted: application herbicide amount 320 g/ha. The gist of the method:
(§2)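 Compound emulsion was diluted to a set herbicide amount and applied to the water surface on the sowing day, into submerged (4 cm) alluvial-soil pots sown with mixed weed seeds and transplanted 2.5-leaf rice. Pots were held in a 25–30 °C greenhouse, and weeds were scored 0–5 by herbicidal ratio after 3 weeks.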

Another data set has as its system rapeseed. Description: Test Example 4: effect on crop by soil treatment (symbol g). To be noted: application herbicide amount 320 g/ha. The procedure, abridged: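 The test used sterilized diluvial soil. Seed was set down in spots and overlaid with about 1.5 cm of soil before growth in a greenhouse kept at 25° C. to 30° C.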
Data set [3] relates to directly sowed rice plant. Description: Test Example 3: effect on crop by foliage application, Wagner pot (symbol b). To be noted: application herbicide amount 320 g/ha. The gist of the method:
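Plants are raised from seed in flooded paddy conditions: water stands 0.1–0.5 cm over alluvial soil, and the pot is kept in a greenhouse at 25–30 °C. Species sown are barnyardgrass (E. crus-galli var. crus-galli), Leptochloa chinensis, Cyperus difformis and rice.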

For data set [4], the system named is Echinochloa crus-galli var. crus-galli. The experiment in a line: Test Example 5: herbicidal effect by foliage application, plastic box (symbol H). Particulars: 320 g/ha, 3 weeks after application. The procedure, abridged:
(§3)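 Effect is rated 3 weeks after a foliar spray of water-diluted emulsion concentrate at a predetermined herbicide amount. Plants had grown 14 days in a 25° C. to 30° C. greenhouse from seed in sterilized diluvial soil.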

A further data set concerns Alopecurus myosuroides. The experiment in a line: Test Example 5: herbicidal effect by foliage application, plastic box (symbol J). Particulars: 320 g/ha, 3 weeks after application. The gist of the method:
as §3

The subject of the next data set is Galium spurium. The experiment in a line: Test Example 5: herbicidal effect by foliage application, plastic box (symbol Q). Particulars: 320 g/ha, 3 weeks after application. The gist of the method:
as §3

Data set [5] relates to Echinochloa oryzacola Vasing. Description: Test Example 1: herbicidal activity, application before weed generation in submerged conditions (symbol A). To be noted: application herbicide amount 320 g/ha. The procedure, abridged:
as §2

Data set [6] relates to Amaranthus retroflexus. Description: Test Example 5: herbicidal effect by foliage application, plastic box (symbol N). To be noted: 320 g/ha, 3 weeks after application. The gist of the method: as §3
The test system of data set [7] is Monochoria vaginalis. Description: Test Example 2: herbicidal activity, application during weed generation in submerged conditions (symbol C). Particulars: Table 23; application herbicide amount 320 g/ha; grade 0-5 by criteria of Test Example 1. The procedure, abridged: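 Submerged alluvial soil (4 cm) sown with mixed seed; greenhouse 25–30° C. 1–2 leaf: diluted emulsion onto water surface, preset dose. Visual score, 3 wk.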

Another data set has as its system Avena fatua. The experiment in a line: Test Example 5: herbicidal effect by foliage application, plastic box (symbol I). Particulars: 320 g/ha, 3 weeks after application. The procedure, abridged: as §3

In the case of `CON=C(C)CC1CC(OC(=O)COc2ccccc2OC)=C(c2c(C)cc(C)cc2C)C1=O` (centres unmarked) [1-067], the “herbicidal effect on E, grade 0-5” value in the data set with Cyperus difformis was 5 (Herbicidal ratio of 90% or more (almost completely withered)). For the same molecule, the “N (Amaranthus retroflexus) herbicidal effect grade” value with Amaranthus retroflexus [1] is 5 (Herbicidal ratio of 90% or more (almost completely withered)). In addition, in the data set on Apera spica-venti, the “L (Apera spica-venti) herbicidal effect grade” value is recorded as 5 (Herbicidal ratio of 90% or more (almost completely withered)). The “F (Digitaria ciliaris) herbicidal effect grade” value in the data set with Digitaria ciliaris was 5 (Herbicidal ratio of 90% or more (almost completely withered)). Besides, the “Herbicidal effect grade, C: Monochoria vaginalis” value is 1 (Herbicidal ratio of 5% or higher and lower than 20%) in the data set on Monochoria vaginalis [2]; 2 (Herbicidal ratio of 20% or higher and lower than 40%) in the data set on Monochoria vaginalis [7]. The “g (rapeseed) effect on crop grade” value in the data set with rapeseed was 4 (Herbicidal ratio of 70% or higher and lower than 90%). The “effect on crop b (directly sowed rice plant), grade 0-5” value in data set [3] is recorded as 5 (Herbicidal ratio of 90% or more (almost completely withered)). Moreover, the “H: Echinochloa crus-galli var. crus-galli, herbicidal effect grade” value in data set [4] was 5 (Herbicidal ratio of 90% or more (almost completely withered)). Also, in the data set with Alopecurus myosuroides, the “J: Alopecurus myosuroides, herbicidal effect grade” value was 5 (Herbicidal ratio of 90% or more (almost completely withered)). Further, the “Q: Galium spurium, herbicidal effect grade” value in the data set on Galium spurium is 2 (Herbicidal ratio of 20% or higher and lower than 40%). In data set [5], the “Herbicidal effect grade, A: Echinochloa oryzacola Vasing.” value is given as 5 (Herbicidal ratio of 90% or more (almost completely withered)). Further, the “N: Amaranthus retroflexus, herbicidal effect grade” value in the data set with Amaranthus retroflexus [6] was 4 (Herbicidal ratio of 70% or higher and lower than 90%). Moreover, the “I: Avena fatua, herbicidal effect grade” value in the data set with Avena fatua is recorded as 5 (Herbicidal ratio of 90% or more (almost completely withered)).

(Values after patent publication US11000033B2, “Ketone or oxime compound, and herbicide” (NISSAN CHEMICAL CORPORATION, priority 2014, dated 2021).)
